Test results published in US20260258035A1, “FIVE-MEMBERED AND SIX-MEMBERED NITROGEN-CONTAINING COMPOUND, AND INTERMEDIATE, PREPARATION METHOD AND USE THEREOF” (HANGZHOU SYNRX THERAPEUTICS BIOMEDICAL TECHNOLOGY CO., LTD., priority 2022, published 2026).
Read-outs that look alike come from different tables or passages of the source.

Experiments:
PARG = PARG (Homo sapiens, UniProt Q86W56); experiment: Biochemical assay (PARG, TFMU-ADPr substrate)
[1] = test system: Human breast squamous carcinoma cells HCC1806; experiment: Cell function assay (In-Cell Western, PAR/pADPr after MMS); format: cell-based; conditions: read-out: IC50 (nM) in cell function assay
How it was run: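 HCC1806 cells adhered 24 h at 37 °C, 5% CO2, then were pretreated 1 h with compound (30000 nM down to 1 nM, plus 0 nM) or DMSO. MMS was then added at 0.5 mM final for 1 h before In-Cell Western detection of PAR/pADPr.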

HCC1806 = experiment: Cell viability assay (CellTiter-Glo); format: cell-based, Human; conditions: HCC1806, 7 days, CellTiter-Glo, read-out: IC50 (nM) in cell viability assay
PXR = molecular target: T1, PXR (Homo sapiens, UniProt O75469); experiment: PXR assay (DPX2 luciferase reporter cells); format: cell-based; conditions: 24 h
T1 construct: host or cells: DPX2 (HepG2)
T1 sequence (O75469 1-434): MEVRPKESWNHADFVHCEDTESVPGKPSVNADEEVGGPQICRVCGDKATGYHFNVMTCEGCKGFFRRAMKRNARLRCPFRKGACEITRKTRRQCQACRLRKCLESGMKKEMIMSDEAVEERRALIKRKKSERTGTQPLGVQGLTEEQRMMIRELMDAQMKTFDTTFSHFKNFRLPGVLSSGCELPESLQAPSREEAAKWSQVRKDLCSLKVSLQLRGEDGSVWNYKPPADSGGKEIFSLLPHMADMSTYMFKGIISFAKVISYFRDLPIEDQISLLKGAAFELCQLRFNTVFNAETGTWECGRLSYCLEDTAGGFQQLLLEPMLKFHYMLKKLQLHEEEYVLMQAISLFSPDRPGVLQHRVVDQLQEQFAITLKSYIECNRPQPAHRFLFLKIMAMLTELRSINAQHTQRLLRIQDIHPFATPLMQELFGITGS
Procedure: 1) Information of Cell Line
DPX2 (HepG2 cells stably transfected with PXR and luciferase reporter) cells were purchased from Puracyp Inc (Carlsbad, CA).
2) Experimental Procedures a) Reagents and Consumables
The DPX2 cells were cultured in the growth medium containing 1000 fetal bovine serum. The DPX2 cells in a T-75 flask were cultured in the […] incubator at 37° C. with 950% relative humidity, and digested when the cells grew to cover 80-90% of the bottom of the flask.
The surface layer of the T-75 cultured cells was washed with 10 mL of PBS; PBS was pipetted; 3-5 mL of tryp sin was added; the cells were digested at 37° C. for 5 minutes or until the cells were digested to be suspended; and excessive medium containing fetal bovine serum was added to stop trypsinization. The cell suspension was transferred to a conical-bottomed centrifuge tube and centrifuged at 150 g rpm for 5 minutes at room temperature; the supernatant was carefully pipetted; and the cells were resuspended with the treatment medium, with the concentration adjusted to 3.2×10^5 cells/mL (incubation time: 24 hours, plate seeding density: […]). 25 μL of the cell suspension was added to each well of the 384-well cell culture plate.
The cell culture plate was placed and cultured for 24 h in the […] incubator with 9500 humidity at 37° C. c) Formulation of Compound
The stock solution of each of 1000× test compound, the positive control (rifampicin), and the negative control (propranolol) was prepared with DMSO. The final concentrations of the positive control (rifampicin) were 1 μM and 10 μM, and the final concentration of the negative control (propranolol) was 10 μM. The final concentrations of the test compound were 10 μM, 1 μM, 0.1 μM, or EC50 (30 μM, 10 μM, 3 μM, 1 μM, 0.3 μM, 0.1 μM). The final concentration of DMSO was 0.10. The cell culture plate was taken out from the incubator, and 25 nL of the stock solution of the positive control, negative control or test compound was directly added with Echo, each with three parallel concentrations. The cell culture plate was placed in the incubator and continued to be incubated for 24 h. Before starting the assay with the substrate, the cell morphology and the monolayer integrity were checked to ensure that the monolayer was of acceptable research quality. […]
d) Quantitative Detection with PXR Activation
After 24 hours of dosing, the culture could be quantitatively detected with PXR activation. The CellTiter-Fluor™ Cell Viability Assay Kit and One-Glo Luciferase reagent were equilibrated to room temperature. The GF-AFC substrate (10 μL) was added to the assay buffer (10 ml) to develop a 2× reagent, which was then diluted into a 1× reagent with 10 ml of PBS. The ONE-Glo Luciferase substrate was added to the ONE-Glo Luciferase assay buffer. The culture plate was taken out from the incubator; the medium was discarded; 1× of CellTiter-Fluor™ reagent was poured into the loading slot; 25 μL of reagent were added per well to the culture plate with a pipetting workstation; and the culture plate was then incubated in the incubator for 30 minutes. The cell culture plate was taken out from the incubator, and cooled slightly to room temperature; and the fluorescence value was determined with a fully automatic quantitative microplate reader, with the excitation light of 400 nm and the emission light of 505 nm. The ONE-Glo reagent was poured into the loading slot, with 25 μL per well, and the resulting mixture was gently mixed in the plate, and incubated at room temperature for 5 minutes to determine the luminescence value.

[2] = 4 nM PARG, 66.2 uM TFMU-ADPr, 3 min at room temperature
[3] = HCC1806, In-Cell Western, MMS treatment
[4] = HCC1806, compound 1 h then 0.5 mM MMS 1 h, PAR/pADPr antibody, In-Cell Western

Sequence of PARG (Q86W56 whole entry): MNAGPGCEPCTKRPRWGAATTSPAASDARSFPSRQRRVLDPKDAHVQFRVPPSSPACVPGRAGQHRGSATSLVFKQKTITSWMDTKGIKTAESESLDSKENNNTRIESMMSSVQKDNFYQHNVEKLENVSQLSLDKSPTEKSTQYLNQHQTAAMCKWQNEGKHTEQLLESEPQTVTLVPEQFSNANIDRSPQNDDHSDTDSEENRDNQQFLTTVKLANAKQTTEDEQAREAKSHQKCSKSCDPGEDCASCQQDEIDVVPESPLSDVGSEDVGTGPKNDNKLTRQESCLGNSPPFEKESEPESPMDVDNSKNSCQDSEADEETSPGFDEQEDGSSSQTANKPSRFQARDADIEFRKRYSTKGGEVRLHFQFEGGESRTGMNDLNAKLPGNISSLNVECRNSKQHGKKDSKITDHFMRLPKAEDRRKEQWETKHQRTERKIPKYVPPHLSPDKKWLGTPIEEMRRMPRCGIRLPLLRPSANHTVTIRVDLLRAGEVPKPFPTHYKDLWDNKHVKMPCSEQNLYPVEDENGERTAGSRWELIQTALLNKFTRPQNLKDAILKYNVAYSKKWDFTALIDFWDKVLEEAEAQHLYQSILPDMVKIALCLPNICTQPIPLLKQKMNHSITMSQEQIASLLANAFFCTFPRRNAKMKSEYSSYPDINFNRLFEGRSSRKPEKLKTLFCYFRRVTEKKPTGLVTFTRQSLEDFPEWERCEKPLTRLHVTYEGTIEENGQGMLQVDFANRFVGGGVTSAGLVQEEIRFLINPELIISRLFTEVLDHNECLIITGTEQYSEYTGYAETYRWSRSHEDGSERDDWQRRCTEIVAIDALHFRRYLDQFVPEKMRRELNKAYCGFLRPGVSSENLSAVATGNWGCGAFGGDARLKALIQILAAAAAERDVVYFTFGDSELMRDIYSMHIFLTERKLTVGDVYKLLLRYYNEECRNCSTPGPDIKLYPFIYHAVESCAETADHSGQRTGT

IC50 (PARG; [2]) [nM] | IC50 (PARG; PARG, TFMU-ADPr substrate) [nM] | IC50 [1, 3] [nM] | IC50 [1, 4] [nM] | IC50 (HCC1806) [nM] | IC50 (HCC1806; Homo sapiens, HCC1806, 168 h) [nM] | PXR Activation @30 uM (Fold) (PXR) | PXR Activation @30 uM (% Ctrl) (PXR; positive control rifampicin) | Compound
< 100 | 14 | 89.5 | < 100 | 850 | 500 to 5000 | – | – | O=S(=O)(NC1(CF)CC1)c1cc(N2CCC3(CCO3)CC2)c2nnc(-c3nnc(C(F)F)s3)n2c1 [Example 110, 3-(5-(difluoromethyl)-1,3,4-thiadiazol-2-yl)-N-(1-(fluoromethyl)cyclopropyl)-8-(1-oxa-7-azaspiro[3.5]nonan-7-yl)-[1,2,4]triazolo[4,3-a]pyridine-6-sulfonamide]
< 100 | 0.37 | 72.9 | < 100 | 916 | 500 to 5000 | – | – | COC1(C)CCN(c2cc(S(=O)(=O)NC3(CF)CC3)cn3c(-c4nnc(C(F)F)s4)nnc23)CC1 [Example 111, 3-(5-(difluoromethyl)-1,3,4-thiadiazol-2-yl)-N-(1-(fluoromethyl)cyclopropyl)-8-(4-methoxy-4-methylpiperidin-1-yl)-[1,2,4]triazolo[4,3-a]pyridine-6-sulfonamide]
< 100 | 1.57 | 17.5 | < 100 | 462 | 500 to 5000 | – | – | CC1(NS(=O)(=O)c2cc(N3CCC(CO)CC3)c3nnc(-c4nnc(C(F)F)s4)n3c2)CC1 [Example 114, 3-(5-(difluoromethyl)-1,3,4-thiadiazol-2-yl)-8-(4-(hydroxymethyl)piperidin-1-yl)-N-(1-methylcyclopropyl)-[1,2,4]triazolo[4,3-a]pyridine-6-sulfonamide]
< 100 | 8.71 | 1.49 | < 100 | 256 | < 500 | – | – | C[C@@H]1CN(c2cc(S(=O)(=O)NC3(C)CC3)cn3c(-c4nnc(C(F)F)s4)nnc23)CCN1C(=O)C1(C)CC1 [Example 117, (R)-3-(5-(difluoromethyl)-1,3,4-thiadiazol-2-yl)-8-(3-methyl-4-(1-methylcyclopropane-1-carbonyl)piperazin-1-yl)-N-(1-methylcyclopropyl)-[1,2,4]triazolo[4,3-a]pyridine-6-sulfonamide]
< 100 | 9.12 | 7.13 | < 100 | 584 | 500 to 5000 | – | – | C[C@@H]1CN(c2cc(S(=O)(=O)NC3(C#N)CC3)cn3c(-c4nnc(C(F)F)s4)nc(Cl)c23)CCN1C(=O)C1(C)CC1 [Example 123, (R)-1-chloro-N-(1-cyanocyclopropyl)-3-(5-(difluoromethyl)-1,3,4-thiadiazol-2-yl)-8-(3-methyl-4-(1-methylcyclopropane-1-carbonyl)piperazin-1-yl)imidazo[1,5-a]pyridine-6-sulfonamide]
< 100 | 11.5 | 28.9 | < 100 | 692 | 500 to 5000 | – | – | N#CC1(NS(=O)(=O)c2cc(N3CCN(C(=O)C4CC(F)(F)C4)CC3)c3cnc(-c4nnc(C(F)F)s4)n3c2)CC1 [Example 146, N-(1-cyanocyclopropyl)-8-(4-(3,3-difluorocyclobutane-1-carbonyl)piperazin-1-yl)-3-(5-(difluoromethyl)-1,3,4-thiadiazol-2-yl)imidazo[1,5-a]pyridine-6-sulfonamide]
< 100 | 2.04 | 8510 | > 1000 | 8810 | 5000 to 30000 | – | – | CC(C)C(=O)N1CCN(c2cc(S(=O)(=O)NC3(C#N)COC3)cn3c(-c4nnc(C(F)F)s4)ncc23)CC1 [Example 148, N-(3-cyanooxetan-3-yl)-3-(5-(difluoromethyl)-1,3,4-thiadiazol-2-yl)-8-(4-isobutyrylpiperazin-1-yl)imidazo[1,5-a]pyridine-6-sulfonamide]
< 100 | 5.34 | 2.99 | < 100 | 352 | 500 to 5000 | – | – | [2H]c1nc(-c2nnc(C(F)F)s2)n2cc(S(=O)(=O)NC3(CF)COC3)cc(N3CCN(C(=O)C(C)C)CC3)c12 [Example 153, 3-(5-(difluoromethyl)-1,3,4-thiadiazol-2-yl)-N-(3-(fluoromethyl)oxetan-3-yl)-8-(4-isobutyrylpiperazin-1-yl)imidazo[1,5-a]pyridine-6-sulfonamide-1-d]
< 100 | 1.68 | 39.1 | 100 to 500 | 727 | 500 to 5000 | – | – | [2H]c1nc(-c2nnc(C(F)F)s2)n2cc(S(=O)(=O)NC3(C)COC3)c(F)c(N3CCN(C(=O)C(C)C)CC3)c12 [Example 155, 3-(5-(difluoromethyl)-1,3,4-thiadiazol-2-yl)-7-fluoro-8-(4-isobutyrylpiperazin-1-yl)-N-(3-methyloxetan-3-yl)imidazo[1,5-a]pyridine-6-sulfonamide-1-d]
< 100 | 6.92 | 12 | < 100 | 280 | < 500 | – | – | [2H]c1nc(-c2nnc(C(F)F)s2)n2cc(S(=O)(=O)NC3(C#N)CC3)cc(N3CCN(C(=O)C4(C)CC4)[C@H](C)C3)c12 [Example 156, (R)—N-(1-cyanocyclopropyl)-3-(5-(difluoromethyl)-1,3,4-thiadiazol-2-yl)-8-(3-methyl-4-(1-methylcyclopropane-1-carbonyl)piperazin-1-yl)imidazo[1,5-a]pyridine-6-sulfonamide-1-d]
– | 0.35 | – | – | – | 24 | 3.2 | 22 | C[C@H]1CN(c2cc(S(=O)(=O)NC3(C)COC3)cn3c(-c4nnc(C(F)F)s4)ncc23)C[C@H](C)N1 [Example 179, 3-(5-(difluoromethyl)-1,3,4-thiadiazol-2-yl)-8-((3S,5S)-3,5-dimethylpiperazin-1-yl)-N-(3-methyloxetan-3-yl)imidazo[1,5-a]pyridine-6-sulfonamide]
< 100 | 7.94 | 70.4 | < 100 | 7730 | 5000 to 30000 | – | – | CC(C)C(=O)N1CCN(c2cc(S(=O)(=O)NC3(C#N)CC3)cn3c(-c4nnc(CO)s4)ncc23)CC1 [Example 366, N-(1-cyanocyclopropyl)-3-(5-(hydroxymethyl)-1,3,4-thiadiazol-2-yl)-8-(4-isobutyrylpiperazin-1-yl)imidazo[1,5-a]pyridine-6-sulfonamide]
